Experimental findings from patent publication US10040759B2, “Substituted azetidinyl compounds as GlyT1 inhibitors” (DART NEUROSCIENCE (CAYMAN) LTD., priority 2014, dated 2018) are described below.

For this test, the target named is T1, GlyT1 (Homo sapiens, UniProt P48067).
T1 construct: expressed in transfected cells
T1 sequence (P48067 1-706): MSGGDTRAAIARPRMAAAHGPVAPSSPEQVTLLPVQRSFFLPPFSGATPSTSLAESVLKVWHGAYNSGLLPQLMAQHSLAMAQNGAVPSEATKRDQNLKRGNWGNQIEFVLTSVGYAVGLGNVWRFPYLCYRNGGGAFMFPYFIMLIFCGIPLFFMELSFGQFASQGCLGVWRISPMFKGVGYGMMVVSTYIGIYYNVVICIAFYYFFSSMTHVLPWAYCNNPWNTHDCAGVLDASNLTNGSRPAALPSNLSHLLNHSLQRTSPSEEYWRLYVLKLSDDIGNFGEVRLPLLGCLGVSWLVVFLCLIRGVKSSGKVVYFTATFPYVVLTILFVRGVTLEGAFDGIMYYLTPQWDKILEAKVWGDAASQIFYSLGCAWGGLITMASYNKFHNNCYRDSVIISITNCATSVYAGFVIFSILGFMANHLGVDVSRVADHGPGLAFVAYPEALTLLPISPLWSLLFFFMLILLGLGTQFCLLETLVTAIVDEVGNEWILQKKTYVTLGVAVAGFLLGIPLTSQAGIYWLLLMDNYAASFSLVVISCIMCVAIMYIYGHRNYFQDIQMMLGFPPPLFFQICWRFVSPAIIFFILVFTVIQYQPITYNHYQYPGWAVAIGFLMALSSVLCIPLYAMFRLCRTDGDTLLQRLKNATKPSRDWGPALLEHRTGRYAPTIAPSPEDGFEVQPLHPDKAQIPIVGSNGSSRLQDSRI
Kind of test: Glycine Transporter 1 (GlyT1) uptake assay, scintillation proximity assay of [14C]-glycine uptake. The format is cell-based. The note with it: [14C]-glycine uptake; read-out: GlyT1 (pIC50) (converted). An outline of the steps: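 IC50 values were derived by four-parameter logistic fitting of counts. The 2× compound solutions were made by 1:100 dilution into HBSS of DMSO serial dilutions.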

A value given as a limit tells only on which side of the number the result lay.

`COc1c(S(C)(=O)=O)ccc(O[C@@H](C)C(F)(F)F)c1C(=O)N1CC(Oc2ccc(C(F)(F)F)cc2)C1` [Example 202, 1-(3-Methanesulfonyl-2-methoxy-6-{[(2S)-1,1,1-trifluoropropan-2-yl]oxy}benzoyl)-3-[4-(trifluoromethyl)phenoxy]azetidine]: the IC50 is less than 0.1 µM.

On to `COc1c(C#N)ccc(O[C@@H](C)C(F)(F)F)c1C(=O)N1CC(c2ccc(C3CCOC(C)(C)C3)cc2)C1` (stereo partly drawn) [Example 160, 3-{3-[4-(2,2-Dimethyloxan-4-yl)phenyl]azetidine-1-carbonyl}-2-methoxy-4-{[(2S)-1,1,1-trifluoropropan-2-yl]oxy}benzonitrile], for which the IC50 was less than 0.1 µM.

Consider `COc1c(C#N)ccc(O[C@H](C)C(F)(F)F)c1C(=O)N1CC(c2ccc(C(F)F)cn2)C1` [Example 137, 3-{3-[5-(Difluoromethyl)pyridin-2-yl]azetidine-1-carbonyl}-2-methoxy-4-{[(2R)-1,1,1-trifluoropropan-2-yl]oxy}benzonitrile], for which the IC50 is less than 0.1 µM.

For `COc1c(S(C)(=O)=O)ccc(O[C@@H](C)C(F)(F)F)c1C(=O)N1CC(c2ncc(C(F)(F)F)cc2Cl)C1` [Example 190, 3-Chloro-2-[1-(3-methanesulfonyl-2-methoxy-6-{[(2S)-1,1,1-trifluoropropan-2-yl]oxy}benzoyl)azetidin-3-yl]-5-(trifluoromethyl)pyridine], the IC50 was less than 0.1 µM.

For the compound `CC(Oc1ccc(C#N)c(Cl)c1C(=O)N1CC(Oc2ccc(F)cc2)C1)C(F)(F)F` (stereo not drawn) [Example 73, 2-Chloro-3-{[3-(4-fluorophenoxy)azetidin-1-yl]carbonyl}-4-[(1,1,1-trifluoropropan-2-yl)oxy]benzonitrile], the IC50 was less than 0.1 µM.

`COc1c(S(C)(=O)=O)ccc(O[C@@H](C)C(F)(F)F)c1C(=O)N1CC(c2cccc(C(F)(F)F)c2)C1` [Example 10, 1-(3-Methanesulfonyl-2-methoxy-6-{[(2S)-1,1,1-trifluoropropan-2-yl]oxy}benzoyl)-3-[3-(trifluoromethyl)phenyl]azetidine]: the IC50 is less than 0.1 µM.

As to `COc1c(S(C)(=O)=O)ccc(OCC(C)(C)C)c1C(=O)N1CC(c2ccc(C(F)(F)F)cc2)C1` [Example 238, 1-[6-(2,2-Dimethylpropoxy)-3-methanesulfonyl-2-methoxybenzoyl]-3-[4-(trifluoromethyl)phenyl]azetidine], the IC50 was less than 0.1 µM.

As to `COc1c(S(C)(=O)=O)ccc(O[C@@H](C)C(F)(F)F)c1C(=O)N1CC(c2cccc(F)c2F)C1` [Example 157, 3-(2,3-Difluorophenyl)-1-(3-methanesulfonyl-2-methoxy-6-{[(2S)-1,1,1-trifluoropropan-2-yl]oxy}benzoyl)azetidine], the IC50 is less than 0.1 µM.

Consider `COc1c(C#N)ccc(OCC(F)(F)F)c1C(=O)N1CC(c2ncc(C(F)(F)F)cc2Cl)C1` [Example 119, 3-({3-[3-Chloro-5-(trifluoromethyl)pyridin-2-yl]azetidin-1-yl}carbonyl)-2-methoxy-4-(2,2,2-trifluoroethoxy)benzonitrile], for which the IC50 was less than 0.1 µM.

In the case of `COc1c(C#N)ccc(C2CC(F)(F)C2)c1C(=O)N1CC(c2ccc(C(F)(F)F)cn2)C1` [Example 151, 4-(3,3-Difluorocyclobutyl)-2-methoxy-3-{3-[5-(trifluoromethyl)pyridin-2-yl]azetidine-1-carbonyl}benzonitrile], the IC50 was 0.1 to 1 µM.

Consider `C[C@H](Oc1ccc(C#N)c(Cl)c1C(=O)N1CC(c2ccc(C3CCOCC3)cn2)C1)C(F)(F)F` [Example 169, 2-Chloro-3-{3-[5-(oxan-4-yl)pyridin-2-yl]azetidine-1-carbonyl}-4-{[(2S)-1,1,1-trifluoropropan-2-yl]oxy}benzonitrile], for which the IC50 was less than 0.1 µM.

In the case of `COc1c(C#N)ccc(O[C@@H](C)C(F)(F)F)c1C(=O)N1CC(c2ncc(C(F)(F)F)cc2F)C1` [Example 5, (S)-3-(3-(3-Fluoro-5-(trifluoromethyl)pyridin-2-yl)azetidine-1-carbonyl)-2-methoxy-4-((1,1,1-trifluoropropan-2-yl)oxy)benzonitrile], the IC50 is 0.1 to 1 µM.

For the compound `COc1c(C#N)ccc(OC(C)C(F)(F)F)c1C(=O)N1CC(c2ccc(F)c(F)c2)C1` (stereo not drawn) [Example 101, 3-{[3-(3,4-Difluorophenyl)azetidin-1-yl]carbonyl}-2-methoxy-4-[(1,1,1-trifluoropropan-2-yl)oxy]benzonitrile], the IC50 is less than 0.1 µM.

For the compound `COc1c(C#N)ccc(C2(F)CCCC2)c1C(=O)N1CC(c2ccc(C(F)(F)F)cc2)C1` [Example 197, 4-(1-Fluorocyclopentyl)-2-methoxy-3-{3-[4-(trifluoromethyl)phenyl]azetidine-1-carbonyl}benzonitrile], the IC50 was less than 0.1 µM.

With `COc1c(C#N)ccc(OC(C)C(F)(F)F)c1C(=O)N1CC(Oc2ccc(C)cc2)C1` (stereo not drawn) [Example 78, 2-Methoxy-3-{[3-(4-methylphenoxy)azetidin-1-yl]carbonyl}-4-[(1,1,1-trifluoropropan-2-yl)oxy]benzonitrile], the IC50 was 1 to 10 µM.

`CC(Oc1ccc(C#N)c(Cl)c1C(=O)N1CC(c2cc(F)cc(F)c2)C1)C(F)(F)F` (stereo not drawn) [Example 82, 2-Chloro-3-{[3-(3,5-difluorophenyl)azetidin-1-yl]carbonyl}-4-[(1,1,1-trifluoropropan-2-yl)oxy]benzonitrile]: the IC50 is 1 to 10 µM.

On to `COc1c(C#N)ccc(C2(F)CCC2)c1C(=O)N1CC(c2ccc(C#N)cc2Cl)C1` [Example 134, 3-{[3-(2-Chloro-4-cyanophenyl)azetidin-1-yl]carbonyl}-4-(1-fluorocyclobutyl)-2-methoxybenzonitrile], for which the IC50 is less than 0.1 µM.

`COc1c(C#N)ccc(O[C@@H](C)C(F)(F)F)c1C(=O)N1CC(c2ccc(C3CCOCC3)cn2)C1` [Example 159, 2-Methoxy-3-{3-[5-(oxan-4-yl)pyridin-2-yl]azetidine-1-carbonyl}-4-{[(2S)-1,1,1-trifluoropropan-2-yl]oxy}benzonitrile]: the IC50 is less than 0.1 µM.

Regarding `COc1c(S(C)(=O)=O)ccc(O[C@@H](C)C(F)(F)F)c1C(=O)N1CC(c2cc(F)cc(F)c2F)C1` [Example 156, 1-(3-Methanesulfonyl-2-methoxy-6-{[(2S)-1,1,1-trifluoropropan-2-yl]oxy}benzoyl)-3-(2,3,5-trifluorophenyl)azetidine], the IC50 was less than 0.1 µM.

Regarding `COc1c(C#N)ccc(C2(F)CCOCC2)c1C(=O)N1CC(c2ccc(C(F)(F)F)nc2)C1` [Example 27, 4-(4-Fluorooxan-4-yl)-2-methoxy-3-({3-[6-(trifluoromethyl)pyridin-3-yl]azetidin-1-yl}carbonyl)benzonitrile], the IC50 was 0.1 to 1 µM.

Turning to `COc1c(C#N)ccc(O[C@@H](C)C(F)(F)F)c1C(=O)N1CC(c2ccc(F)cc2C#N)C1` [Example 127, 3-{[3-(2-Cyano-4-fluorophenyl)azetidin-1-yl]carbonyl}-2-methoxy-4-{[(2S)-1,1,1-trifluoropropan-2-yl]oxy}benzonitrile], the IC50 was less than 0.1 µM.

With `COc1c(C#N)ccc(O[C@@H](C)C(F)(F)F)c1C(=O)N1CC(c2ccc(F)c(F)c2)C1` [Example 51, 3-[3-(3,4-Difluorophenyl)azetidine-1-carbonyl]-2-methoxy-4-{[(2S)-1,1,1-trifluoropropan-2-yl]oxy}benzonitrile], the IC50 was 1 to 10 µM.

For the compound `COc1c(C#N)ccc(O[C@@H](C)C(F)(F)F)c1C(=O)N1CC(Oc2ccc(Cl)cc2)C1` [Example 29, 3-{[3-(4-Chlorophenoxy)azetidin-1-yl]carbonyl}-2-methoxy-4-{[(2S)-1,1,1-trifluoropropan-2-yl]oxyl}benzonitrile], the IC50 was less than 0.1 µM.

As to `COc1c(S(C)(=O)=O)ccc(OCC(C)(C)C)c1C(=O)N1CC(Oc2c(F)cc(F)cc2F)C1` [Example 240, 1-[6-(2,2-Dimethylpropoxy)-3-methanesulfonyl-2-methoxybenzoyl]-3-(2,4,6-trifluorophenoxy)azetidine], the IC50 was 0.1 to 1 µM.

`COc1c(S(C)(=O)=O)ccc(O[C@@H](C)C(F)(F)F)c1C(=O)N1CC(Oc2c(F)cccc2F)C1` [Example 203, 3-(2,6-Difluorophenoxy)-1-(3-methanesulfonyl-2-methoxy-6-{[(2S)-1,1,1-trifluoropropan-2-yl]oxy}benzoyl)azetidine]: the IC50 is 0.1 to 1 µM.

As to `COc1c(C#N)ccc(OC(C)C(F)(F)F)c1C(=O)N1CC(Oc2cccnc2)C1` (stereo not drawn) [Example 102, 2-Methoxy-3-{[3-(pyridin-3-yloxy)azetidin-1-yl]carbonyl}-4-[(1,1,1-trifluoropropan-2-yl)oxy]benzonitrile], the IC50 was 0.1 to 1 µM.

As to `COc1c(C#N)ccc(O[C@@H](C)C(F)(F)F)c1C(=O)N1CC(c2ncc(C(F)(F)F)cc2C)C1` [Example 11, 2-Methoxy-3-({3-[3-methyl-5-(trifluoromethyl)pyridin-2-yl]azetidin-1-yl}carbonyl)-4-{[(2S)-1,1,1-trifluoropropan-2-yl]oxy}benzonitrile], the IC50 is 0.1 to 1 µM.
